Measurements: US20230250393A1, “PRE-TREATING CARDIOMYOCYTES WITH ANTI-ARRHYTHMIC DRUGS TO REDUCE ENGRAFTMENT ARRHYTHMIA” (priority 2022, published 2023)
Like-named read-outs stand apart in the source and are kept apart here. Marks after values point to notes of the source that are not given here.

Assays:
[1] = tested on: engraftment arrhythmia (EA); settings: for Effect on HR (heart rate) during EA / Effect: response on EA burden / Effect on rhythm: cardioversion / restoration of sinus rhythm: acute response, infarcted pigs with hESC-CM transplant in EA, dosages and routes as in Table 1; for Effect on EA heart rate and rhythm in the screen (overall): short-term intravenous infusion or oral treatment
From the text: The objective of this study was to identify a pharmacological regimen to attenuate arrhythmias following cardiac remuscularization therapy. This study was designed in two phases: the first, to observe the natural history of EA and screen various antiarrhythmic agents for efficacy, and the second, to test for efficacy (FIG. 1). All subjects were 30-40 kg castrated male Yucatan minipigs between 6-13 months of age (S&S Farms). In Phase 1, nine subjects underwent cardiac remuscularization therapy with 500×10^6 hESC-CM delivered by direct surgical transepicardial injections or later, by percutaneous transendocardial injections. The first four subjects (one non-infarcted and three infarcted) were followed to learn the natural history of EA and establish clinical endpoints and parameters for the Phase 2 drug trial. The subsequent five subjects underwent systematic dosing with antiarrhythmic agents with continuous electrocardiography (ECG) monitoring to determine effect on rhythm and rate (Table 1).
(§1) Telemetric ECG was continuously monitored in real-time from the time of myocardial infarction to detect the primary endpoint of cardiac death or unstable EA. Automated quantification of heart rate and arrhythmia burden was performed offline by a board-certified cardiologist using the ecgAUTO™ 3.3.5.10 software package (EMKA Technologies). Arrhythmia was defined as an ectopic beat (e.g. premature ventricular contraction) or rhythm (e.g. idioventricular rhythm, ventricular tachycardia). […] Heart rate and arrhythmia burden were quantified for two continuous minutes every five minutes (40% of total rhythm was counted) and presented as daily averages.
Subjects were administered multiple trials antiarrhythmics and observed for acute response by continuous ECG monitoring. Intravenous agents were delivered as a bolus dose over 2 minutes. Oral agents were administrated by direct observation in a minimum of apples, apple sauce or pumpkin puree with daily feeding and dosed daily for dose escalation. A washout period of at least three days was provided between agents. Amiodarone was administered as the last agent for testing given concern for prolonged half-life and elimination kinetics. All agents were tested in at least two subjects.
In Phase 1 of the study, the inventors screened six canonical antiarrhythmic agents broadly targeting sodium channels, potassium channels, and beta-adrenergic receptors: lidocaine (Ib, sodium channel inhibitor), flecainide (Ic, sodium channel inhibitor), propafenone (Ic, sodium channel inhibitor), amiodarone (III, potassium channel inhibitor), sotalol (III, potassium channel inhibitor) and metoprolol (β1-adrenergic receptor inhibitor) for effect on EA heart rate and rhythm. In addition, the funny current/HCN4 channel antagonist, ivabradine, was tested (Table 1). This series were not meant to be definitive but rather to rapidly identify the candidate agents.

[2] = tested on: engraftment arrhythmia (EA); assay type: in vivo; settings: chronic amiodarone
Description: as §1
Data are presented as mean±standard error of the mean (SEM).

[3] = Amiodarone drug monitoring by liquid chromatography-mass spectrometry; assay type: in vivo; settings: trough, within 1 week of discontinuation of chronic oral amiodarone, 6 pigs, mean ± SEM
Description: FIG. 8 Plasma amiodarone levels in pigs. Amiodarone levels were measured in plasma by a custom liquid chromatography-mass spectrometry assay. Chronic oral amiodarone in six pigs was discontinued after achieving electrical maturation and stabilization of engraftment arrythmia. Serum through concentrations of amiodarone were assayed weekly including 3-4 weeks after discontinuation.
A novel liquid chromatography—mass spectrometry assay was established for amiodarone to monitor steady state serum levels in the porcine model and guide oral dosing to ensure efficacy and avoid dose-related toxicity. A target serum level of 1.5-4.0 μg/ml was extrapolated from prior human pharmacokinetic studies (16,17). Elimination kinetics after discontinuation of oral amiodarone therapy were also studied by obtaining weekly trough concentrations in 6 pigs (subjects 6, 7, 8, 13, 14, 16) (FIG. 8).

Structure (SMILES) | Effect on HR (heart rate) during EA [1] | Effect: response on EA burden [1] | Effect on EA heart rate and rhythm in the screen (overall) [1] | Burden of EA, chronic treatment (in words) [2] | Average serum amiodarone after discontinuation [3] [µg/mL] | Effect on HR (heart rate) during EA ([1]; listed as ivabradine) | Effect on rhythm: cardioversion / restoration of sinus rhythm ([1]; listed as ivabradine) | Adverse effects observed in screening ([1]; minipig, in vivo) | Effect on rhythm: cardioversion / restoration of sinus rhythm [1]
COCCc1ccc(OCC(O)CNC(C)C)cc1 (stereo not shown) [Metoprolol, metoprolol] | Moderate HR effect (IV only), | no response on EA burden | no significant effect |  |  |  |  |  | 
CC(C)NCC(O)c1ccc(NS(C)(=O)=O)cc1 (stereo not shown) [Sotalol, sotalol] | No response on HR | No response | no significant effect |  |  |  |  |  | 
O=C(NCC1CCCCN1)c1cc(OCC(F)(F)F)ccc1OCC(F)(F)F (stereo not shown) [Flecainide, flecainide] | No response on HR | No response | no significant effect |  |  |  |  |  | 
CCCCc1oc2ccccc2c1C(=O)c1cc(I)c(OCCN(CC)CC)c(I)c1 [Amiodarone, amiodarone] | Modest HR effect |  |  | reduced the burden of EA chronically | 0.42 ± 0.12 |  |  |  | 
COc1cc2c(cc1OC)CC(=O)N(CCCN(C)C[C@H]1Cc3cc(OC)c(OC)cc31)CC2 [Ivabradine, ivabradine] |  | effect (PO only)**, no |  |  |  | robust dose-dependent effects on heart rate | did not restore sinus rhythm | **Severe bradycardia | 
CCN(CC)CC(=O)Nc1c(C)cccc1C [Lidocaine, lidocaine] | Modest HR effect |  | no significant effect |  |  |  |  |  | rare
